Test results as given in PubChem BioAssay AID720578 (The Scripps Research Institute Molecular Screening Center, 2013).
Where “and” joins values, the source holds several entries; their conditions need not be identical. Equal values may be shown once. Calls of active or inactive are those of the source. No rule for the calls is given here.

Biological target: Crimean-Congo hemorrhagic fever virus L protein viral ovarian tumor (vOTU) protease domain
Assay: CCHFV vOTU protease inhibitor potency, dose response, biochemical, fluorescence, Pep-AMC substrate (AID 720578)
Settings: recombinant CCHFV vOTU, Pep-AMC fluorescence cleavage

Row | Compound | IC50
1 | O=S(=O)(c1ccc2nc(-c3ccco3)c(-c3ccco3)nc2c1)N1CCOCC1 | inactive
2 | O=C(NC(=S)Nc1ccccc1N1CCCC1)c1ccc(F)cc1 | inactive
3 | NS(=O)(=O)c1ccc(NC2=CC(=O)C(=O)c3ccccc32)cc1 | 4.85 µM
4 | COCCN1C=C2C(=O)C(C)(OC(=O)C3CCCC3)C(=O)C(c3ccccc3)=C2C=C1CCCC(=O)OC (centres undefined) | inactive
5 | CCCCCCCCN1C(=O)[C@@H](CC(=O)NCCCOCCCC)C[C@@]2(C(=O)OC)C1=C[C@H](C(C)C)O[C@@H]2C1CC1 | inactive
6 | Cc1oc2c(c1C(=O)N1CCOCC1)C(=O)c1ccccc1C2=O | inactive
7 | O=C1C=C(Nc2ccccc2)c2ccccc2C1=O | 6.87 µM
8 | COc1ccc2noc3c2c1C(=O)c1ccccc1-3 | 3.08 µM
9 | C[n+]1c(-c2ccccc2)cc2c(=Cc3ccc([N+](=O)[O-])cc3)c3ccccc3n21 | inactive
10 | CCC(COC)Oc1cc(NCc2ccccc2)c2ncn(C(C)C)c2c1 (centres undefined) | 5.43 µM
11 | O=C(OCc1nnc(-c2ccccc2)o1)c1ccc([N+](=O)[O-])s1 | 7.52 µM
12 | CCCCCCCCCCCCCCCC[n+]1cccc2ccccc21 | inactive
13 | CCOC(=O)c1cc2c(ccn2C)n1Cc1ccccc1C | > 115 µM (inactive)
14 | Cc1cnc(C2OCCO2)c2cccc(N)c12 | 2.56 µM
15 | CCOCCCNC1=C(Cl)C(=O)c2ccccc2C1=O | inactive
16 | COc1ccccc1NC(=O)COC(=O)c1ccc([N+](=O)[O-])s1 | 9.94 µM
17 | CCCCn1c(NS(=O)(=O)c2ccccc2)c(S(=O)(=O)c2ccc(C)cc2)c2nc3ccccc3nc21 | > 115 µM (inactive)
18 | O=C(/C=C/c1ccc(O)cc1)c1ccc(NC2=C(N3CCCCC3)C(=O)c3ccccc3C2=O)cc1 | 3.35 µM
19 | CN(C)c1ncc(C2=C(Cl)C(=O)C(N3CCCC3)=C(Cl)C2=O)s1 | inactive
20 | O=C(COC(=O)c1ccc([N+](=O)[O-])s1)NCc1ccc(F)cc1 | 8.08 µM
21 | O=C(O)c1ccc(NC2=C(n3nnc4ccccc43)C(=O)c3ccccc3C2=O)cc1 | 4.59 µM
22 | COC1=C(Br)C(=O)c2nc(C)ccc2C1=O | 9.43 µM
23 | CC(NC1=CC(=O)c2cccnc2C1=O)C(O)c1ccccc1 (centres undefined) | 1.94 µM
24 | CCOC(=O)c1c(C)[nH]c2c1-c1ccccc1C(=O)C2=O | 0.323 µM
25 | O=C1Cc2ccccc2C(=O)N1CCc1ccccc1 | 1.14 µM
26 | Cc1ccc(S(=O)(=O)/N=C2\C=C(Nc3cccc(C(=O)O)c3)C(=O)c3ccccc32)c(C)c1 | 0.973 µM

Row | Compound | IC50
27 | O=C(O)CSc1cc(NS(=O)(=O)c2ccc(Cl)cc2)c2ccccc2c1O | 5 µM
28 | CC1=C(SCc2ccccc2)C(=O)c2ccccc2C1=O | 2.51 µM
29 | C[n+]1c2cc(N)ccc2cc2ccc(N)cc21 | 0.945 µM and 3.14 µM
30 | C=CCN(CC=C)C(=S)Nc1ccc2nsnc2c1 | inactive
31 | Cc1ccc2c(c1C)-c1c(ccc(C)c1C)C(=O)C2=O | 7.79 µM
32 | CCc1ccc(S(=O)(=O)/N=C2\C=C(Nc3cccc(C(=O)O)c3)C(=O)c3ccccc32)cc1 | 0.833 µM
33 | CC(=O)N(/N=C1\Sc2ccccc2C1=O)c1cccc(C)c1 | inactive
34 | Cc1ccc(NC2=CC(=O)C(=O)c3ccccc32)cc1 | 7.14 µM
35 | CCOc1ccc(NC(=S)Nc2ccc3nsnc3c2)cc1 | 7.51 µM
36 | COc1cc(NC(C)CCCN)c2ncccc2c1 (centres undefined) | inactive
37 | O=C(O)CCCNc1cc(N2CCN(C(=O)c3ccco3)CC2)c2noc3c2c1C(=O)c1ccccc1-3 | 5.72 µM
38 | COc1ccc(NC(=S)Nc2ccc3nsnc3c2)cc1 | 6.79 µM
39 | CCOC(=O)N1CCN(C2=C(NS(=O)(=O)c3ccc(C)cc3)C(=O)c3ccccc3C2=O)CC1 | inactive
40 | CCOC(=O)/C=C(\C)Sc1cc(O)c2ccccc2c1O | 1.57 µM
41 | O=C1OC(Nc2cc(Br)cc3cccnc23)c2ccccc21 (centres undefined) | 5.23 µM
42 | CC(=O)N(C1=C(Cl)C(=O)c2ccccc2C1=O)C1CCCCC1 | 3.54 µM
43 | CN(C)CCCNc1cc(O)c2ncccc2c1 | 5.13 µM
44 | CC1(OC(=O)C2CCCC2)C(=O)C=C2C=C(c3ccsc3)N(CCCCO)C=C2C1=O (centres undefined) | inactive
45 | c1coc(-c2nnc(-c3ccco3)nn2)c1 | 9.33 µM
46 | S=C(Nc1ccc2nsnc2c1)N1CCCCCC1 | inactive
47 | C[n+]1c2ccccc2nc2ccc(NCCO)cc21 | 5.96 µM
48 | Cc1ccc(N2C(=O)[C@@H]3[C@H](C2=O)C2c4ccccc4C=CN2[C@@H]3C(=O)c2ccco2)cc1 (some centres undefined) | 4.21 µM
49 | COc1ccc(CNC(=O)c2c(C)oc3c2C(=O)c2ccccc2C3=O)cc1 | 8.2 µM
50 | O=S(=O)(N=C1C=CC(=NS(=O)(=O)c2ccccc2)c2ccccc21)c1ccccc1 | inactive
51 | CC(=O)NC1=C(N(C)C2CCS(=O)(=O)C2)C(=O)c2ccccc2C1=O (centres undefined) | 8.88 µM
52 | O=C(COC(=O)c1ccc([N+](=O)[O-])s1)Nc1ccccc1 | inactive

Row | Compound | IC50
53 | O=c1[nH]c(=S)[nH]c2c1C(c1ccc(Br)cc1)c1c([nH]c(=S)[nH]c1=O)O2 | inactive
54 | CN1/C(=C\C=C2C(=O)NC(=O)NC2=O)C(C)(C)c2ccccc21 | inactive
55 | COc1cc(CCNC2=CC(=O)c3ncccc3C2=O)ccc1O | 5.25 µM
56 | Cc1nc2c(o1)C(=O)c1ccccc1C2=Nc1ccccc1 | 7.89 µM
57 | O=C1C(=O)c2ccccc2-c2ccccc21 | 2.4 µM
58 | O=C1C(=O)c2cccnc2-c2ncccc21 | 5.38 µM
59 | COc1cc2c(cc1OC)-c1c(OC)c(OC)cc3c1[C@H](C2)N(C)CC3 | 7 µM
60 | NS(=O)(=O)c1ccc(NC(=O)COC(=O)c2ccc([N+](=O)[O-])s2)cc1 | 8.31 µM
61 | Cc1ccc(NC2=C(N3CCCCC3)C(=O)c3ccccc3C2=O)cc1 | 4.46 µM
62 | Cc1cc(=O)c2c(o1)C(=O)c1occc1C2=O | 6.05 µM
63 | O=S(=O)(Nc1cc2nc3ccccc3nc2n1Cc1ccccc1)c1ccc(Cl)cc1 | 2.57 µM
64 | O=C1C(Nc2cccc(O)c2)=C(N2CCCCC2)C(=O)c2ccccc21 | 3.6 µM
65 | Cc1ccc(CNc2ccc(O)cc2)cc1 | inactive
66 | O=C(O)CSc1cc(NS(=O)(=O)c2cccc([N+](=O)[O-])c2)c2ccccc2c1O | 2.44 µM
67 | S=C(Nc1ccc(Cl)cc1)Nc1cccc2cnccc12 | 6.44 µM
68 | CC(=O)N(C1=C(N)C(=O)c2ccccc2C1=O)c1ccccc1 | 8.38 µM
69 | O=C(O)c1ccc(NC2=C/C(=N/S(=O)(=O)c3cccs3)c3ccccc3C2=O)cc1 | 0.384 µM
70 | CC(C)=CCC1=C(OCC(=O)O)C(=O)c2ccccc2C1=O | 6.79 µM
71 | CN(C)S(=O)(=O)c1cccc(NC(=S)Nc2cccc3cnccc23)c1 | inactive
72 | Cc1cc(C)c(S(=O)(=O)/N=C2\C=C(Nc3ccc(C(=O)O)cc3)C(=O)c3ccccc32)c(C)c1 | 1.72 µM
73 | CCc1cc[n+](C2=C([O-])c3ccccc3C(=O)/C2=N\S(=O)(=O)c2cccs2)cc1 | 4.4 µM
74 | CC(=O)c1ccc(NC2=C(N3CCOCC3)C(=O)c3ccccc3C2=O)cc1 | inactive
75 | CN(C)c1ccc(C=c2c3cc(O)ccc3n3c2cc(-c2ccccc2)[n+]3C)cc1 | inactive
76 | CC(C)NC1=C(Cl)C(=O)c2ccccc2C1=O | inactive
77 | O=C(O)c1ccc(S(=O)(=O)/N=C2\C=C(Nc3ccccc3F)C(=O)c3ccccc32)cc1 | 0.397 µM
78 | CC[n+]1c(-c2ccccc2)c2cc(N)ccc2c2ccc(N)cc21 | 1.56 µM

Row | Compound | IC50
79 | CCN(CC)CCCC(C)n1c2nc(=O)[nH]c(=O)c-2nc2cc(Cl)ccc21 (centres undefined) | 2.5 µM
80 | CCCCCCCCCCCCCCCC[n+]1ccccc1 | inactive
81 | O=C(COC(=O)c1ccc([N+](=O)[O-])s1)Nc1ccc(Cl)cn1 | 8.32 µM
82 | C[n+]1cccc2cccc([O-])c21 | 6.41 µM
83 | CN(C)c1ccc2nc3ccc(=O)cc-3sc2c1 | inactive
84 | Cn1c2ccccc2c2cc(/C=N/NC(=O)c3cc(O)ccc3O)ccc21 | 9.12 µM
85 | O=C1C=C(O)c2[nH]c(=O)ccc2C1=O | 4.26 µM
86 | Oc1ccccc1CNc1cccc2cccnc12 | 9.96 µM
87 | COc1cc2c(cc1O)[C@@H]1Cc3ccc(OC)c(O)c3CN1CC2 | 7.49 µM
88 | O=C(O)c1cccc(NC2=C(N3CCOCC3)C(=O)c3ccccc3C2=O)c1 | inactive
89 | Cc1ccc(Cl)cc1NC1=C/C(=N\S(=O)(=O)c2cccs2)c2ccccc2C1=O | 0.787 µM
90 | COc1cc(NCCCCCCN)c2ncccc2c1OC | 3.65 µM
91 | O=C1C=C(N2CC2)c2ccccc2C1=O | 2.73 µM
92 | Cc1c(Cl)cnc(NC(=O)COC(=O)c2ccc([N+](=O)[O-])s2)c1Cl | 7.08 µM
93 | O=C1C(Nc2ccccc2)=C(N2CCCCC2)C(=O)c2ccccc21 | 4.54 µM
94 | O=C1C(=NO)CCc2ccccc21 | 3.36 µM
95 | CCOC(=O)C1=C(COC(=O)c2ccc([N+](=O)[O-])s2)NC(=O)NC1C (centres undefined) | 7.84 µM
96 | CC(C)C[C@H](NC(=O)c1[nH]cnc1C(=O)N[C@@H](C)C(=O)OC(C)(C)C)C(=O)OC(C)(C)C | > 115 µM (inactive)
97 | Cc1ccc(NC2=C/C(=N/S(=O)(=O)c3cccs3)c3ccccc3C2=O)cc1 | 0.405 µM
98 | O=C(O)c1cccc(NC2=C(n3nnc4ccccc43)C(=O)c3ccccc3C2=O)c1 | 4.76 µM
99 | CC(=O)[C@@H]1[C@@H]2C(=O)N(c3ccc(F)c(Cl)c3)C(=O)[C@@H]2C2c3ccccc3C=CN21 (some centres undefined) | inactive
100 | N#CC1=C(S)N(c2ccccc2)C(c2ccc(-c3ccc(Cl)c(Cl)c3)o2)NC1=O (centres undefined) | inactive
101 | O=C(c1ccccc1)c1coc2c1C(=O)c1ccccc1C2=O | 6.61 µM
102 | Cc1ccccc1NC1=C/C(=N\S(=O)(=O)c2cccs2)c2ccccc2C1=O | 0.249 µM
103 | C=CCN1C(=O)/C(=C/c2ccc(OC(C)=O)c(OCC)c2[N+](=O)[O-])SC1=S | 7.63 µM
104 | CCOc1ccc2noc3c2c1C(=O)c1ccccc1-3 | inactive
